Results on 1 substance are retold here after patent publication US20180296630A1, “METHODS AND COMPOSITIONS FOR PREVENTING OR TREATING OPHTHALMIC CONDITIONS” (Stealth BioTherapeutics Corp, priority 2012, published 2018).

Series [1] deals with HTM cells. Briefly: Intracellular ROS production, acute H2O2 injury, FACS, HTM cells. The class given is cell-based, human. The conditions noted are these: n=4. The source says: The percentage of intracellular ROS production compared to GTM control in GTM H2O2, D-Arg-2′,6′-Dmt-Lys-Phe-NH2 10^−6M, D-Arg-2′,6′-Dmt-Lys-Phe-NH2 10^−7M, D-Arg-2′,6′-Dmt-Lys-Phe-NH2 10^−8M groups were 146.0±2.27%, 84.5±8.75%, 102.0±5.69%, 133.0±5.17% respectively (n=3); the HTM groups were 153.0±3.46%, 79±2.39%, 91.8±3.49%, 129.0±8.24% respectively (n=4). P<0.001 GTM and HTM H2O2 Group compared to control; *** means P<0.001 compared to GTM H2O2 group; ▴ ▴ ▴ Means P<0.001 compared to HTM H2O2 group; ▴ ▴ means P<0.01 compared to HTM H2O2 group.

In series [2] the test system is human retinal epithelial cells (HREC). The experiment in a line: Mitochondrial membrane potential of high-glucose HRECs (JC-1, flow cytometry). It counts as cell-based. The conditions noted are these: 100 nM co-treatment with high glucose; 24 or 48 hours. On the procedure: Assessment of D-Arg-2′,6′-Dmt-Lys-Phe-NH2 as a protectant against mitochondrial potential loss of HRECs treated with high-glucose was examined. To determine if a mitochondrial-mediated pathway was important in the protective effect of D-Arg-2′,6′-Dmt-Lys-Phe-NH2 against high glucose-induced cell death, ΔΨm was measured by flow cytometry. After treating the HRECs with high-glucose without D-Arg-2′,6′-Dmt-Lys-Phe-NH2 for 24 or 48 hours, a rapid loss of mitochondrial membrane potential was detected by JC-1 fluorescent probe as indicated by a significant decrease in the ratio of red to green fluorescence observed in the high glucose group.
For orientation: Flow cytometry measures light scatter and fluorescence of single cells or particles in a stream.

Series [3] has as its system trabecular meshwork cells from non-diseased individuals (HTM). Briefly: LDH cytotoxicity assay, HTM cells. The class given is cell-based, human. An excerpt: In this Example, the effects of the aromatic-cationic peptides of the invention were compared between trabecular meshwork cells from POAG patients (GTM) and trabecular meshwork cells from non-diseased individuals (HTM). Methods useful in the studies of the present invention have been described. See generally, He Y, Ge J, Tombran-Tink J., Mitochondrial defects and dysfunction in calcium regulation in glaucomatous trabecular meshwork cells. Invest Ophthalmol Vis Sci. 2008, 49(11):4912-22; He Y, Leung K W, Zhang Y H, Duan S, Zhong X F, Jiang R Z, Peng Z, Tombran-Tink J, Ge J. Mitochondrial complex I defect induces ROS release and degeneration in trabecular meshwork cells of POAG patients: protection by antioxidants. Invest Ophthalmol Vis Sci. 2008, 49(4):1447-58. […]
To assess whether D-Arg-2′,6′-Dmt-Lys-Phe-NH2 had cytotoxic effects of HTM or GTM cells, various concentrations of D-Arg-2′,6′-Dmt-Lys-Phe-NH2 were administered to cells and the cytotoxicity was measured using an LDH assay. […] The assay quantitatively measures the stable, cytosolic, lactate dehydrogenase (LDH) enzyme, which is released from damaged cells. The released LDH is measured with a coupled enzymatic reaction that results in the conversion of a tetrazolium salt (iodonitrotetrazolium (INT)) into a red color formazan by diaphorase. […] The LDH activity is determined as NADH oxidation or INT reduction over a defined time period.

Series [4] deals with STZ and HFD/STZ diabetic rats. Briefly: Retinal microvessel changes in diabetic SD rats. It counts as in vivo, Sprague-Dawley rat. The settings on record: STZ or HFD/STZ rats. On the procedure: (§1) A rat model of diabetes was established by combination of 6-week HFD and low dose of STZ (30 mg/kg) injection or a single high dose of STZ (65 mg/kg) in SD rats. See generally, K. Srinivasan, B. Viswanad, Lydia Asrat, C. L. Kaul and P. Ramarao, Combination of high-fat diet-fed and low-dose streptozotocin-treated rat: A model for type 2 diabetes and pharmacological screening, Pharmacological Research, 52(4): 313-320, 2005. Rats of the same batch fed with normal chow (NRC) were used as a control.
The effect of the aromatic-cationic peptides on retinal microvessels in the SD rat model was investigated (FIGS. 11-12). Administration of D-Arg-2′,6′-Dmt-Lys-Phe-NH2 reduced retinal microvasular changes observed in STZ or HFD/STZ rats.

For series [5], the system named is STZ diabetic rats. Briefly: Lens opacity (cataract) in STZ rat model. The settings on record: 10 mg (Table 11: 10 mg/kg s.c.). The class given is in vivo, Sprague-Dawley rat. The protocol:
as §1

Take D-Arg-2′,6′-Dmt-Lys-Phe-NH2: the “percentage of intracellular ROS production compared to control” value (“percentage … to control” below) in series [1] (10^−6M) is given as 79±2.39%. In series [1] (10^−7M), the “percentage … to control” value came to 91.8±3.49%. Besides, the “percentage … to control” value in series [1] (10^−8M) is 129.0±8.24%. For the same substance, the “Δψm (ratio of red to green JC-1 fluorescence)” value in series [2] is listed as “remained virtually unchanged”. In addition, the cytotoxicity result in series [3] (10^−4M) is given as “no cytotoxicity”. Besides, the “viability (LDH assay)” value in series [3] (various concentrations) is recorded as “does not affect the viability”. The retinal microvascular changes result in series [4] is reported as “reduced”. In addition, in series [5], the “Opacity degree ++++, number in group” value was 1; the “Opacity degree +++, number in group” value is reported as 0; the “Opacity degree ++, number in group” value was found to be 0; the “Opacity degree +, number in group” value was found to be 2. In addition, in series [5], the “Opacity degree −, number in group” value was 2; the Percentage of opacity amounted to 60.0%; the “Percentage of severe opacity” value stood at 20.0%.
